Where two headings read alike, the source gives them in different places.
Molecular target: T1, human FXR (NR1H4) (Homo sapiens, UniProt Q96RI1)
T1 sequence (Q96RI1 1-486): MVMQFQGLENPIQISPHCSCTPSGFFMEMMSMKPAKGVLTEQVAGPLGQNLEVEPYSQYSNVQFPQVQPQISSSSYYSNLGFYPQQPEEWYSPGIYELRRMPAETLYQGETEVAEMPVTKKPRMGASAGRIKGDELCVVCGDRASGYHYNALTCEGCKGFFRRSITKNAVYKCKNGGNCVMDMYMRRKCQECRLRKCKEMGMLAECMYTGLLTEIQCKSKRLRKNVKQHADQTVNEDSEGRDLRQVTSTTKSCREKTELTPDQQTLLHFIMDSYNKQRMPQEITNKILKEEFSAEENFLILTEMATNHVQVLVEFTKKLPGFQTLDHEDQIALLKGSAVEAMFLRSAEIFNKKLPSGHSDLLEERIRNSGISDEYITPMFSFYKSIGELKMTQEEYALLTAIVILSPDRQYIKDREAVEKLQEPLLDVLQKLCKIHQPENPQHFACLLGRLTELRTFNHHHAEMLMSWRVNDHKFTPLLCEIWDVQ
Experiment: Human FXR (NR1H4) Assay: Gal4 promoter driven luciferase reporter transactivation in CHO cells (Indigo Bioscience kit IB00601)
Format: cell-based
Conditions: for Emax: CHO, read-out: Efficacy (%); for EC50: potency range, Human FXR (NR1H4) reporter assay in CHO cells, read-out: EC50
Method in brief: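 CHO reporter cells expressing human NR1H4 with luciferase driven by an FXR-responsive promoter (Gal4 system), run per manufacturer's kit. Compounds applied to plated cells, then incubated a further 22 hours at 37° C. Luciferase luminescence read after detection reagent as a surrogate of FXR activation, giving potency and efficacy.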

[1] = efficacy normalized to CDCA set as 100%

## COc1ccc(-c2cc(NC(=O)N3C4CCC3CC(OCc3c(-c5c(Cl)cccc5Cl)noc3C3CC3)C4)ccc2C(=O)O)cn1 (stereo not shown) [Example 787]
[1]
  Emax: 97%
  EC50: < 10 nM

## O=C(NS(=O)(=O)C1CC1)c1cccc(NC(=O)N2C3CCC2CC(OCc2c(-c4ccccc4OC(F)(F)F)noc2C2CC2)C3)c1 (stereo not shown) [Example 264]
  EC50: > 1000 nM

## CS(=O)(=O)NC(=O)c1cccc(NC(=O)N2C3CCC2CC(OCc2c(-c4ccccc4OC(F)(F)F)noc2C2CC2)C3)c1 (stereo not shown) [Example 262]
  EC50: > 1000 nM

## O=C(O)c1ccc2c(c1)CCN2C(=O)N1C2CCC1CC(OCc1c(-c3ccccc3OC(F)(F)F)noc1C1CC1)C2 (stereo not shown) [Example 592]
  Emax: 227%
  EC50: > 1000 nM

## COC(=O)c1ccc(NC(=O)N2C3CCC2CC(OCc2c(-c4c(Cl)cccc4Cl)noc2C2CC2)C3)c(OC(F)(F)F)c1 (stereo not shown) [Example 716]
[1]
  Emax: 43%
  EC50: 100 to 1000 nM

## COC(=O)c1ccc2nc(NC(=O)N3C4CCC3CC(OCc3c(-c5c(Cl)cccc5Cl)noc3C3CC3)C4)ccc2c1 (stereo not shown) [Example 785]
[1]
  Emax: 46%
  EC50: 10 to 100 nM

## CN(C)C(=O)c1cccc(NC(=O)N2C3CCC2CC(OCc2c(-c4c(Cl)cccc4Cl)noc2C2CC2)C3)c1 (stereo not shown) [Example 215]
  EC50: < 10 nM

## CCOc1cc(C(=O)O)ccc1NC(=O)N1C2CCC1CC(NCc1c(-c3c(Cl)cccc3Cl)noc1C1CC1)C2 (stereo not shown) [Example 830]
[1]
  Emax: 82%
  EC50: < 10 nM

## COc1c(NC(=O)N2C3CCC2CC(OCc2c(-c4ccccc4OC(F)(F)F)noc2C2CC2)C3)cccc1C(=O)O (stereo not shown) [Example 761]
[1]
  Emax: 105%
  EC50: > 1000 nM

## O=C(Nc1ccc2ccccc2c1)N1C2CCC1CC(OCc1c(-c3c(Cl)cccc3Cl)noc1C1CC1)C2 (stereo not shown) [Example 20]
  EC50: 10 to 100 nM

## O=C(O)c1ccc(NC(=O)N2C3CCC2CC(OCc2c(-c4c(Cl)cccc4Cl)noc2C2CC2)C3)cc1C(F)(F)F (stereo not shown) [Example 195]
  EC50: 10 to 100 nM

## COC(=O)c1ccc(NC(=O)N2C3CCC2CC(OCc2c(-c4c(Cl)cccc4Cl)noc2C2CC2)C3)c(C#N)c1 (stereo not shown) [Example 802]
[1]
  Emax: 28%
  EC50: 100 to 1000 nM

## O=C(O)c1ccc(NC(=O)N2C3CCC2CC(OCc2c(-c4c(Cl)cccc4Cl)noc2C2CC2)C3)c(C2CC2)c1 (stereo not shown) [Example 801]
[1]
  Emax: 70%
  EC50: 10 to 100 nM

## NS(=O)(=O)c1cccc(NC(=O)N2C3CCC2CC(OCc2c(-c4c(Cl)cccc4Cl)noc2C2CC2)C3)c1 (stereo not shown) [Example 24]
  EC50: 100 to 1000 nM

## COC(=O)c1cc(OC)c(NC(=O)N2C3CCC2CC(OCc2c(-c4c(Cl)cccc4Cl)noc2C2CC2)C3)cc1-c1ccccc1 (stereo not shown) [Example 792]
[1]
  Emax: 92%
  EC50: < 10 nM

## O=C(NCc1ccc(F)c(F)c1)N1C2CCC1CC(OCc1c(-c3c(Cl)cccc3Cl)noc1C1CC1)C2 (stereo not shown) [Example 733]
[1]
  Emax: 175%
  EC50: < 10 nM

## O=C(Nc1cc(F)c(F)c(F)c1)N1C2CCC1CC(OCc1c(-c3c(Cl)cccc3Cl)noc1C1CC1)C2 (stereo not shown) [Example 10]
  EC50: 10 to 100 nM

## CN1CC=C(c2cccc(NC(=O)N3C4CCC3CC(OCc3c(-c5c(Cl)cccc5Cl)noc3C3CC3)C4)c2)CC1 (stereo not shown) [Example 715]
[1]
  Emax: 123%
  EC50: 10 to 100 nM

## CCOC(=O)c1ccc2nc(NC(=O)N3C4CCC3CC(OCc3c(-c5c(Cl)cccc5Cl)noc3C3CC3)C4)sc2c1 (stereo not shown) [Example 804]
[1]
  Emax: 90%
  EC50: 10 to 100 nM

## O=C(Nc1ccc(-c2nnn[nH]2)cc1)N1C2CCC1CC(OCc1c(-c3c(Cl)cccc3Cl)noc1C1CC1)C2 (stereo not shown) [Example 701]
[1]
  Emax: 306%
  EC50: 100 to 1000 nM

## O=C(Nc1cccc(-c2cnn(C3CCOCC3)c2)c1)N1C2CCC1CC(OCc1c(-c3c(Cl)cccc3Cl)noc1C1CC1)C2 (stereo not shown) [Example 708]
[1]
  Emax: 209%
  EC50: < 10 nM

## O=C(O)c1ccc(NC(=O)N2C3CCC2CC(OCc2c(-c4ccccc4OC(F)(F)F)noc2C2CC2)C3)cc1 (stereo not shown) [Example 230]
  EC50: 10 to 100 nM

## COC(=O)c1ccc(NC(=O)N2C3CCC2CC(OCc2c(-c4c(Cl)cccc4Cl)noc2C2CC2)C3)c(C2CC2)c1 (stereo not shown) [Example 800]
[1]
  Emax: 54%
  EC50: 10 to 100 nM

## O=C(Nc1cccc(-c2ccncc2)c1)N1C2CCC1CC(OCc1c(-c3c(Cl)cccc3Cl)noc1C1CC1)C2 (stereo not shown) [Example 836]
[1]
  Emax: 135%
  EC50: < 10 nM

## COc1ccc(CNC(=O)N2C3CCC2CC(OCc2c(-c4c(Cl)cccc4Cl)noc2C2CC2)C3)cc1 (stereo not shown) [Example 731]
[1]
  Emax: 229%
  EC50: < 10 nM

## CCOC(=O)c1ccc(NC(=O)N2C3CCC2CC(OCc2c(-c4c(Cl)cccc4Cl)noc2C2CC2)C3)cc1-c1cncnc1 (stereo not shown) [Example 778]
[1]
  Emax: 248%
  EC50: < 10 nM

## O=C(O)c1ccc(NC(=O)N2C3CCC2CC(OCc2c(-c4ccccc4C(F)(F)F)noc2C2CC2)C3)cc1-c1ccccc1 (stereo not shown) [Example 815]
[1]
  Emax: 36%
  EC50: 10 to 100 nM
